According to patent publication US20230117831A1, “MULTI-FUNCTIONAL CHIMERIC MOLECULES” (THE BROAD INSTITUTE, INC., priority 2020, published 2023):
“Also recorded” adds a separate entry of the source.

How the values were obtained:
PKC delta = PKC delta (Homo sapiens, UniProt Q05655); details: cited from earlier work
PKCalpha [1] = target: T1, PKCalpha (Homo sapiens, UniProt P17252); details: cited from earlier work
PKC epsilon = target: T2, PKC epsilon (Homo sapiens, UniProt Q02156); details: cited from earlier work
T2 sequence (Q02156 1-737): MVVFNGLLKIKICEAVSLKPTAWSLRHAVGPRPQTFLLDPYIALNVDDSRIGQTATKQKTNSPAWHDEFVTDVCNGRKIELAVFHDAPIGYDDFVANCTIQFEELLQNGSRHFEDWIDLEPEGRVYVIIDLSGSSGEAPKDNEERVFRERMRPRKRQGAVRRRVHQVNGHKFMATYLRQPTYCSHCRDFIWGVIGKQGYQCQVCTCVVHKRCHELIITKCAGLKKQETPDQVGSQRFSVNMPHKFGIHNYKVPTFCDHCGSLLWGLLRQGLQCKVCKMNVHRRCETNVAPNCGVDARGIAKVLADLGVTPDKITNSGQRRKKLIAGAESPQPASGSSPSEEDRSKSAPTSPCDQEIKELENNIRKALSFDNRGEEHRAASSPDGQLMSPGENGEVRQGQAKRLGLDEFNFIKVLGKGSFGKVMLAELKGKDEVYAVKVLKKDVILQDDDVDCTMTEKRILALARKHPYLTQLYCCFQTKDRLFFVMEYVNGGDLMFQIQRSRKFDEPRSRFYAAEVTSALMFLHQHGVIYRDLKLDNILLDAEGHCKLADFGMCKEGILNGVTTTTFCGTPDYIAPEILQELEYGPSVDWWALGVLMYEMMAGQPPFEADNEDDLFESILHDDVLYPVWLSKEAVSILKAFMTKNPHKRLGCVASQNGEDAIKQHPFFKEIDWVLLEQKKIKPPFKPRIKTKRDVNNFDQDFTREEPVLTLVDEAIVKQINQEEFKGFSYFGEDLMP

PKC gamma = PKC gamma (Homo sapiens, UniProt P05129); details: cited from earlier work
PKC beta = PKC beta (Homo sapiens, UniProt P05771); details: cited from earlier work
PKCalpha [2] = target: T1, PKCalpha; details: cited from earlier work; remark: listed apart in the source
[3] = system: breast carcinoma cell lines MCF-7 and MDA-MB-231; details: cited from earlier work
PKCδ = PKCδ (Homo sapiens, UniProt Q05655); details: cited from earlier work
[4] = system: lung cancer and HeLa cervical adenocarcinoma cells; details: formation of membrane ruffles; cited from earlier work
ABL [5] = target: T3, ABL (Homo sapiens, UniProt P00519); details: cited from earlier work
ABL [6] = target: T3, ABL; experiment: ADP-Glo ABL activation; type: biochemical
From the text: To expand the scope of PHICS beyond the Ser/Thr kinases (AMPK or PKC), Applicants will develop PHICS using the Abelson (ABL) family that are nonreceptor tyrosine kinases with SH3-SH2-TK ([…]) domains (42, 43). An autoinhibitory mechanism involving intramolecular interactions stabilizes this kinase in a “locked” conformation, inhibiting kinase activity unless the SH3 domain interactions are disrupted by binding of an activator. The SH2 domain of ABL is responsible for substrate specificity: if the SH2 domain is exchanged for another protein's SH2 domain, then substrate specificity is altered (43). […] Both DPH and DPH with linker (FIG. 83B) activated ABL in […] (FIG. 83C).

VEGFR = VEGFR (Homo sapiens, UniProt P35968); details: cited from earlier work
BRD4 (PKCβII) = target: T4, BRD4 (PKCβII) (Homo sapiens, UniProt O60885+P05771); experiment: BRD4 phosphorylation by PKC isoform, western blot; type: biochemical
T4 construct: BRD4-GST (BD1 and BD2 (49-460))(31044); purchased SignalChem (PKC); BPS Bioscience (BRD4) P63-18G; 31044
From the text: (§1) Similar approaches were followed to determine the phosphorylation of BRD4 with different AMPK and PKC isoforms as well as phosphorylation of different BRD proteins.

BRD4 (PKCγ) = target: T5, BRD4 (PKCγ) (Homo sapiens, UniProt O60885+P05129); experiment: BRD4 phosphorylation by PKC isoform, western blot; type: biochemical
T5 construct: BRD4-GST (BD1 and BD2 (49-460))(31044); purchased SignalChem (PKC); BPS Bioscience (BRD4) P66-18G; 31044
From the text: as §1

BRD4 (PKCβI) = target: T6, BRD4 (PKCβI) (Homo sapiens, UniProt O60885+P05771); experiment: BRD4 phosphorylation by PKC isoform, western blot; type: biochemical
T6 construct: BRD4-GST (BD1 and BD2 (49-460))(31044); purchased SignalChem (PKC); BPS Bioscience (BRD4) P62-18G; 31044
From the text: as §1

BRD4 (PKCδ) = target: T7, BRD4 (PKCδ) (Homo sapiens, UniProt O60885+Q05655); experiment: BRD4 phosphorylation by PKC isoform, western blot; type: biochemical
T7 construct: BRD4-GST (BD1 and BD2 (49-460))(31044); purchased SignalChem (PKC); BPS Bioscience (BRD4) P64-18G; 31044
From the text: as §1

BRD4 (PKCα) = target: T8, BRD4 (PKCα) (Homo sapiens, UniProt O60885+P17252); experiment: BRD4 phosphorylation by PKC, western blot; type: biochemical
T8 construct: BRD4-GST (BD1 and BD2 (49-460))(31044); GST; purchased BPS Bioscience (BRD4); SignalChem (PKCα) 31044; P61-18G
Experimental: Kinase reaction was performed using 1 μM PHICS (2.1, 2.2, 2.3, 2.4, 2.5 and (R)-2.3), 50 nM PKC, 700 nM BRD4-GST and 50 μM ATP for 1 hr at room temperature before quenching with SDS loading buffer. Proteins were resolved in NuPAGE 4-12% Bis-Tris protein gels and transferred to a PVDF membrane. After incubation of the membrane with the blocking buffer, phospho-PKC substrate motif [(R/K)XpSX(R/K)] (Cell Signaling, Cat #6967) (1:1000) primary antibody was added to the membrane and further incubated at 4° C. for overnight. HRP-conjugated secondary antibodies or IRDye 800CW/IRDye 680RD secondary antibodies were used to visualize the protein bands.
as §1

BRD4 and PKC (α-isoform) = target: T9, BRD4 and PKC (α-isoform) (Homo sapiens, UniProt O60885+P17252); experiment: AlphaScreen ternary complex formation; type: binding
T9 construct: BRD4-His tag (BD1 and BD2 (49-460))(31045); purchased BPS Bioscience (BRD4); SignalChem (PKCα) 31045; P61-18G
Experimental: A similar approach was followed to determine the PHICS2 induced ternary complex formation between PKC: PHICS2: BRD4-GST (BD1 and BD2). Initially, concentration series of PHICS (2.1, 2.2, 2.3, 2.4 and 2.5) with different linkers and (R)-PHICS2.3 with DMSO control were prepared in a white opaque 384-well microplate using a dilution assay buffer with 1% DMSO in the final mixture. Then 10 nM PKC-GST and 100 nM BRD4 (6×His tag) were added to the mixture and incubated at room temperature. Following 1 hr incubation, acceptor beads and donor beads were added to the system.

BRD4 (PKC) = target: T10, BRD4 (PKC) (Homo sapiens, UniProt O60885+P17252); experiment: ADP-Glo turnover assay, PKC + BRD4-GST; type: biochemical; details: limiting PKC 50 nM; iPHICS2 as negative control
T10 construct: BRD4-GST (BD1 and BD2 (49-460))(31044); GST; purchased BPS Bioscience (BRD4); SignalChem (PKCα) 31044; P61-18G
Experimental: The same protocol was followed for PHICS2.3 as well. Initially, 1 μM of PHICS2.3 and (R)-PHICS2.3 were prepared in a 96 well plate (white, flat bottom) using kinase assay buffer and incubated with 50 nM PKC and 700 nM BRD4-GST (BD1 and BD2) for 1 hr at room temperature in the presence of 50 μM ATP before adding ADP-Glo reagents.

BTK (Ser180) [7] = target: T11, BTK (Ser180) (Homo sapiens, UniProt Q06187, T474A); experiment: BTK Ser180 phosphorylation in HEK293T cells, western blot; type: cell-based; details: BTK T474A mutant
T11 construct: expressed in transfected cells; host or cells: HEK293T

BTK (Ser180) [8] = target: T12, BTK (Ser180) (Homo sapiens, UniProt Q06187, D539N); experiment: as above; type: cell-based; details: BTK D539N mutant
T12 construct: expressed in transfected cells; host or cells: HEK293T

BTK (Ser180) [9] = target: BTK (Ser180) (Homo sapiens, UniProt Q06187); experiment: as above; type: cell-based
BTK (Ser180) [10] = target: T13, BTK (Ser180) (Homo sapiens, UniProt Q06187, S180A); experiment: as above; type: cell-based; details: BTK-Flag S180A mutant
T13 construct: expressed in transfected cells; host or cells: HEK293T

BTK (Ser180) [11] = target: T14, BTK (Ser180) (Homo sapiens, UniProt Q06187, K430R); experiment: as above; type: cell-based; details: BTK K430R mutant
T14 construct: expressed in transfected cells; host or cells: HEK293T

BTK (Ser180) [12] = target: BTK (Ser180) (Homo sapiens, UniProt Q06187+Q13131+Q9Y478); experiment: in vitro BTK phosphorylation by AMPK, western blot; type: biochemical; details: phospho BTK (Ser180) antibody
Experimental: FIG. 69—In-vitro biochemical validation of BTK phosphorylation by AMPK in the presence of PHICS. Western blot analysis for BTK phosphorylation using 10 μM BTK targeting AMPK-PHICS with different linkers for identification of the optimal molecule for further studies.

[13] = system: AMPK:PHICS3:BTK ternary complex; experiment: co-immunoprecipitation of AMPK with BTK-Flag in HEK293T cells; type: cell-based; details: HEK293T transfected with BTK-Flag
Experimental: Co-immunoprecipitation was performed to evaluate the ternary complex (AMPK: PHICS3: BTK) formation in HEK293T cells after overexpressing the BTK, which is otherwise absent in these cells. HEK293T cells were cultured in DMEM supplemented with 10% FBS, penicillin (100 units/mL) and streptomycin (100 μg/mL). Cells were maintained at 37° C. in 5% CO2 humidified atmosphere.
After 36 hrs transfection of pcDNA3.1(+) BTK-Flag plasmid using TransIT®-293 Transfection Reagent, HEK 293T cells were maintained in a serum-free media overnight before incubation with compounds. After that, cells were treated with 5 μM concentration of AMPK activator or BTK binder or PHICS3 or DMSO control for 4 hrs in a fresh serum-free media before cells were lysed on ice in a lysis buffer (M-PER™ Mammalian Protein Extraction Reagent, Halt™ Protease and Phosphatase Inhibitor Cocktail (2×) and 50 mM NaF). Next, the protein concentrations of cell lysates were measured using Pierce™ BCA Protein Assay Kit. Equal amounts of cell lysates were incubated with Anti-FLAG® M2 Magnetic Beads overnight at 4° C. […] Eluted proteins were analyzed by western blotting using AMPK-α rabbit antibody (Cell Signaling, Cat #5832) or Flag mouse antibody (Cell Signaling, Cat #8146) (1:2000) or Beta-actin mouse antibody (Cell Signaling, Cat #3700) (1:2000).

Sequence of BTK (Ser180) (Homo sapiens, UniProt Q06187) (Q06187 2-659): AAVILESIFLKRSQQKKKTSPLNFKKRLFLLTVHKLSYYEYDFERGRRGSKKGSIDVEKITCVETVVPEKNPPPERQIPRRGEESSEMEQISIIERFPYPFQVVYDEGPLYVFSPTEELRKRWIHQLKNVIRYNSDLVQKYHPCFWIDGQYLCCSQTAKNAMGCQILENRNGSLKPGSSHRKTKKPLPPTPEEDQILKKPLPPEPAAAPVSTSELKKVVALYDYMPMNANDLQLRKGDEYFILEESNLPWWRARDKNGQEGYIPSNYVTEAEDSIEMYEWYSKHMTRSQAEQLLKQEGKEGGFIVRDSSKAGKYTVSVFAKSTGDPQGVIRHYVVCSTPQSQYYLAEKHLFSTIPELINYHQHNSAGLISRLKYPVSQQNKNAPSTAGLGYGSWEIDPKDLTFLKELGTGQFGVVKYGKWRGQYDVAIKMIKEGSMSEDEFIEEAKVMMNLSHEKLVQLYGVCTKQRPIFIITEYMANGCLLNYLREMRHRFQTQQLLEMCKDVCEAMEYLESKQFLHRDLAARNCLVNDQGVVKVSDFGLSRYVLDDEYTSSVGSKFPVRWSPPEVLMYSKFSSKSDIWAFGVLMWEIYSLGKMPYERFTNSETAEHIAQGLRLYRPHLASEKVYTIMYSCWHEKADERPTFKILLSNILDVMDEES
Sequence of PKC delta (Q05655 whole entry): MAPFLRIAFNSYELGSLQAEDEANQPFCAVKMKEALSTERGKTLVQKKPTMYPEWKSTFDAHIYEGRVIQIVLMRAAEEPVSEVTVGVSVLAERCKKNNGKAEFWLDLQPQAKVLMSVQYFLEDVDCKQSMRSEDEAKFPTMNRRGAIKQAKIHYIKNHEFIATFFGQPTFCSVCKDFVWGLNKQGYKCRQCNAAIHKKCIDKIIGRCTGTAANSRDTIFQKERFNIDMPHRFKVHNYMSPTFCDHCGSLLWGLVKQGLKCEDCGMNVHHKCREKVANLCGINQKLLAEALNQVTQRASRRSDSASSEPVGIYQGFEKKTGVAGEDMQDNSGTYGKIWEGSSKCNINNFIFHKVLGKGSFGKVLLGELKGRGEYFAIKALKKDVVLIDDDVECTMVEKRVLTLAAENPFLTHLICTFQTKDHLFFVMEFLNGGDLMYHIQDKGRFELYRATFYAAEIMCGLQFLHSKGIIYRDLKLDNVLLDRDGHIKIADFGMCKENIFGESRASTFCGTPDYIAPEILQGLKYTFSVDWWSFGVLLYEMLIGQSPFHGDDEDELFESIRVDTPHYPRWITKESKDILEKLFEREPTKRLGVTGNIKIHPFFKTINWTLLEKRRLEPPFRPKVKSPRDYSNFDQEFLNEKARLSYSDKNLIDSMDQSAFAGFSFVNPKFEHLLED
Sequence of BTK (Ser180) (Homo sapiens, UniProt Q06187+Q13131+Q9Y478) (Q06187 whole entry): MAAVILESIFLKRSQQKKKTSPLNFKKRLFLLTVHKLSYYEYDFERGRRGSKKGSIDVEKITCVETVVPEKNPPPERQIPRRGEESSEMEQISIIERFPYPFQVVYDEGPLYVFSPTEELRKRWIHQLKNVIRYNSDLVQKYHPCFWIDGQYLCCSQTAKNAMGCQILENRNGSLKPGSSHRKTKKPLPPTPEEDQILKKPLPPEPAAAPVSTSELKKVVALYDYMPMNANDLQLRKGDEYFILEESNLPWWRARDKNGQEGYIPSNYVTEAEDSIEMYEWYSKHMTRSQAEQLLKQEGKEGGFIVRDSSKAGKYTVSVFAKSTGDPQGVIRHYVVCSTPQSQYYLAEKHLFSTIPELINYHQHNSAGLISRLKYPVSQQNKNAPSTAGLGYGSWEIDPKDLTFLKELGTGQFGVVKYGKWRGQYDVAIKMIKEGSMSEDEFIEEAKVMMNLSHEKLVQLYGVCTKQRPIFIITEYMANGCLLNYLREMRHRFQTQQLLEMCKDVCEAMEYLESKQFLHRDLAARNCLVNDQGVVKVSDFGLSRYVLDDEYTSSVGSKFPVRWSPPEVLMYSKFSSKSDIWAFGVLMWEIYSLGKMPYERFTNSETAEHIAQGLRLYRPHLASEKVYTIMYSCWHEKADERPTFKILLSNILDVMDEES
Sequence of BTK (Ser180) (Homo sapiens, UniProt Q06187+Q13131+Q9Y478) (Q13131 whole entry): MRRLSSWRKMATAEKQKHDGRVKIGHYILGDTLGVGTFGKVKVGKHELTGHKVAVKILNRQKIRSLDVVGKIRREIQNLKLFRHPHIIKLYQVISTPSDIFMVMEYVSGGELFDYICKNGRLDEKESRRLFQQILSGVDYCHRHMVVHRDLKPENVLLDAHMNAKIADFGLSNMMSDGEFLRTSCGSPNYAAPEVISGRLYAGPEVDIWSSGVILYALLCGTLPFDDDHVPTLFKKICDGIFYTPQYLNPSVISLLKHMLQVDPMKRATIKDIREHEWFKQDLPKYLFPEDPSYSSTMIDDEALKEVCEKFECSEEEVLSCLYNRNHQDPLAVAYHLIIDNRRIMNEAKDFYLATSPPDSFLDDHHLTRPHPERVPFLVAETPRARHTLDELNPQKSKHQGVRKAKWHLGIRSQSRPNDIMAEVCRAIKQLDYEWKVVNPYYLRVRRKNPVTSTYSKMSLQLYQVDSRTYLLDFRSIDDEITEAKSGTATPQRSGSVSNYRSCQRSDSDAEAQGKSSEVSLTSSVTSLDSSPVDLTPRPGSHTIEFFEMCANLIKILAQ
Sequence of BTK (Ser180) (Homo sapiens, UniProt Q06187+Q13131+Q9Y478) (Q9Y478 whole entry): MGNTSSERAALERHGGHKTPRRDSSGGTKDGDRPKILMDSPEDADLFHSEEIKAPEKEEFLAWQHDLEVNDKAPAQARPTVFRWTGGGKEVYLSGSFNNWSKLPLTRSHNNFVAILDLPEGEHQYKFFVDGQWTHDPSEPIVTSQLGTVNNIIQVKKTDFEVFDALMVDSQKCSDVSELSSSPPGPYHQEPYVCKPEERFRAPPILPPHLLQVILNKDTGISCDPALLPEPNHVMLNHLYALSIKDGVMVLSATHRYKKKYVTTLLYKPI
Sequence of BTK (Ser180) (Homo sapiens, UniProt Q06187+Q13131+Q9Y478) (P54619 whole entry partner): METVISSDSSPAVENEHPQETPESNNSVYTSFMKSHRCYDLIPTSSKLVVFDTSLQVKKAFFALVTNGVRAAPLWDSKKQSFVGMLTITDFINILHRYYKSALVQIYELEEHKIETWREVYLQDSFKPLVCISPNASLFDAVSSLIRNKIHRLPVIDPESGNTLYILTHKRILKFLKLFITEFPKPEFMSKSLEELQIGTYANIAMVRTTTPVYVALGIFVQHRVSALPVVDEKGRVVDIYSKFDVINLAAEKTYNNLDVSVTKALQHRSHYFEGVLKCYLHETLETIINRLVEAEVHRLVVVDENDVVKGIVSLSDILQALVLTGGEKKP
Sequence of PKC beta (P05771 whole entry): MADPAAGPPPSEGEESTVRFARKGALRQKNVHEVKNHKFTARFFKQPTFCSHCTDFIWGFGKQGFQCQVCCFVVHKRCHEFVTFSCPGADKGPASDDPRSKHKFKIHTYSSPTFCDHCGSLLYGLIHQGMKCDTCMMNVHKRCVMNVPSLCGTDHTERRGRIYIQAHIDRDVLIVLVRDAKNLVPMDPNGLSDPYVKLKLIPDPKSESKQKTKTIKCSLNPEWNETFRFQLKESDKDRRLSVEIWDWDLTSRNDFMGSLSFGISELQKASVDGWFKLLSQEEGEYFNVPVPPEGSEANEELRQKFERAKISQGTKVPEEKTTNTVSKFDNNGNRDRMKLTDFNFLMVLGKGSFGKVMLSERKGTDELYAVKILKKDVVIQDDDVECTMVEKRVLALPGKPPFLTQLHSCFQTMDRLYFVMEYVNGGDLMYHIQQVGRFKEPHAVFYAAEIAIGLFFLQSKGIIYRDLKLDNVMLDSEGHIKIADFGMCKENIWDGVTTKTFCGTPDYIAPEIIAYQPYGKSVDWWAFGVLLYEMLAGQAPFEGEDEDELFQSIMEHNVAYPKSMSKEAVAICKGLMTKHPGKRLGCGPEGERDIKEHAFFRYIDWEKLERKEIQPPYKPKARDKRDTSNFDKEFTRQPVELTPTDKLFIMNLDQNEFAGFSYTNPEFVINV
Sequence of PKCδ (Q05655 whole entry): as the sequence (Q05655 whole entry) above
T7 sequence (Q05655 whole entry, other chains not shown, canonical isoform): as the sequence (Q05655 whole entry) above
T13 sequence (Q06187 2-659 S180A): as the sequence (Q06187 2-659) above, with S179A counted along it
T11 sequence (Q06187 2-659 T474A): as the sequence (Q06187 2-659) above, with T473A counted along it
T12 sequence (Q06187 2-659 D539N): as the sequence (Q06187 2-659) above, with D538N counted along it
T14 sequence (Q06187 2-659 K430R): as the sequence (Q06187 2-659) above, with K429R counted along it

CCCCCCCCC#Cc1ccc2c(c1)C[C@@H](CO)NC(=O)[C@H](C(C)C)N2C
Kd (PKC delta): 0.122 µM
down-regulation of PKCalpha (PKCalpha [1]): preferentially down-regulates PKCalpha
Kd (PKC epsilon): 0.142 µM
Kd (PKC gamma): 0.0407 µM
Kd (PKC beta): 0.0174 µM
Kd (PKCalpha [2]): 0.0147 µM
antiproliferative activity against breast carcinoma [3]: antiproliferative activity

CC(C)CC(C/C=C1\CC(CO)(COC(=O)C(C)(C)C)OC1=O)CC(C)C (stereo not shown) [AJH-836]
Kd (PKC delta): 0.00189 µM
Kd (PKC epsilon): 0.00189 µM
PKC isoform selectivity (PKCδ): selective for PKCδ and PKC
cytoskeletal reorganization [4]: AJH-836 induced major changes in cytoskeletal reorganization in lung cancer and HeLa cervical adenocarcinoma cells as determined by the formation of membrane ruffles
Kd (PKC beta): 0.0197 µM
Kd (PKCalpha [2]): 0.0236 µM

O=C1NC(=O)C(c2cn(-c3ccccc3)nc2-c2ccc(F)cc2)N1 (stereo not shown) [DPH, 5-[3-(4-fluorophenyl)-1-phenyl-1H-pyrazol-4-yl]-2,4-imidazolidinedione]
Kd (ABL [5]): 0.137 µM
ABL activation (ADP-Glo) (ABL [6]): activated

COc1cc2nccc(Oc3ccc(NC(=O)NC4CC4)c(Cl)c3)c2cc1C(N)=O [Lenvatinib]
Residence time (VEGFR): 17 min

Cc1sc2c(c1C)C(c1ccc(Cl)cc1)=NC(CC(=O)NCCCCCC(=O)NCc1ccc(COc3ccc4c(c3)N(C)[C@@H](C(C)C)C(=O)N[C@H](CO)C4)cc1)c1nnc(C)n1-2 (stereo partly shown) [PHICS2.3]
BRD4 phosphorylation level (BRD4 (PKCβII)): modest phosphorylation
BRD4 phosphorylation level (BRD4 (PKCγ)): only minor phosphorylation
BRD4 phosphorylation level (BRD4 (PKCβI)): modest phosphorylation
BRD4 phosphorylation level (BRD4 (PKCδ)): only minor phosphorylation
BRD4 phosphorylation level (BRD4 (PKCα)): highest BRD4 phosphorylation
ternary complex formation (AlphaScreen), BRD4 and PKC (BRD4 and PKC (α-isoform)): displayed the bell-shaped curve
calculated ADP production (BRD4 (PKC)): 740 ± 31 nM

Nc1ncnc2c1c(-c1ccc(Oc3ccccc3)cc1)nn2[C@@H]1CCCN(C(=O)CCCCCCCCC(=O)NCCOc2ccc(-c3cc4c(C(=O)O)c[nH]c4cc3Cl)cc2)C1 [PHICS3]
BTK phosphorylation at Ser180 (BTK (Ser180) [7]): drastically lowered BTK phosphorylation
BTK phosphorylation at Ser180 (BTK (Ser180) [8]): markedly reduced
BTK phosphorylation at Ser180 (BTK (Ser180) [9]; WT BTK-Flag): optimal molecule for phosphorylation; also recorded: able to detect PHICS-mediated BTK phosphorylation at Ser180
BTK phosphorylation at Ser180 (BTK (Ser180) [9]; pre-treatment with covalent BTK binder ibrutinib): demolished the ability of PHICS3 to induce BTK phosphorylation
BTK phosphorylation at Ser180 (BTK (Ser180) [10]): phosphorylation was not detected
BTK phosphorylation at Ser180 (BTK (Ser180) [11]): markedly reduced
in vitro BTK phosphorylation (linker comparison) (BTK (Ser180) [12]): most optimal molecule for phosphorylation; also recorded: optimum
ternary complex formation inside the cells (co-immunoprecipitation) [13]: co-immunoprecipitation of AMPK with BTK
